Measured values from patent US20060234944A1, “Beta-secretase inhibitors and methods of use” (Oklahoma Medical Reseach Foundation, priority 2001, published 2006).
pKi: −log10 of the molar value. *1 amine or outer side, *2 acyl side, *3 side chain or, on linkers, in order; H or OH if unused. Where a SMILES comes first, the peptide text is derived from it. [ ]: non-standard residue; d: D form. The star is where a group is joined. LeuΨ(S-CHOHCH2)Ala = CC(C)C[C@H](N[*:1])[C@@H](O)C[C@@H](C)C(=O)[*:2]; 5FAM = O=C1OC2(c3ccc(O)cc3Oc3cc(O)ccc32)c2ccc(C(=O)*)cc21; Ahx = NCCCCCC(=O)O

Tests used:
HEK293 cells = assay: Entry of fluorescently labelled inhibitors into cultured cells (flow cytometry); type: cell-based, human; details: 10 to 30 minutes incubation
Description: Fluorescently labelled inhibitors or fluorescein (Fs) as a control were incubated with suspended cells for time intervals ranging from 10 to 30 minutes. Cells were fixed with paraformaldehyde and permeabilized in 0.2% Tween-20 in PBS for 6 minutes and incubated with anti-fluorescein-Alexa™ 488 antibody (Molecular Probes, Eugene, Oreg.) in order to enhance detection of intracellular inhibitor present from penetration. Flow cytometry (FACSCalibur™) and confocal fluorescent microscopy (Leica TCS NT™) were performed at the Flow and Image Cytometry Lab, OUHSC.

[1] = Transport of conjugated inhibitors into mouse blood cells, splenocytes and brain after i.p. injection
Description: Whole blood cells (with EDTA as anti-coagulant in the syringe or in the capillary tube) were isolated from anesthetized animals from the orbital artery or by heart puncture and diluted 1:10 in PBS. Prior to the harvest of other tissue samples, animals were anesthetized and perfused with 150 ml of neutral-buffered 10% formalin. Spleens were harvested intact. Brains were harvested and cerebral hemispheres separated, one for sectioning by cryostat, the other for single cell isolation for flow cytometry.
Sections of the brain hemispheres were obtained by soaking in OCT/PBS at 4° C. for overnight, recovered and frozen in Histo Prep Media.
To collect single cell suspensions, spleens and brain hemispheres were homogenized through a 30 μm screen and directly analyzed by flow cytometric analysis.

plasma Aβ40 [2] = assay: Inhibition of Aβ production in tg2576 transgenic mice (plasma Aβ40 ELISA); type: in vivo
Description: Six-month-old tg2576 mice (n=21) were injected intraperitoneally (i.p.) 200 μg of conjugate CPI-3 or with control DMSO, in 200 μl of PBS. Plasma were collected from anesthetized animals by orbital bleed or sephaneous vein into heparinized capillary tubes and clarified by centrifugation. Plasma A≢ 1-40 levels were determined by capture ELISA (BioSource International, Camarillo, Calif.). The peptide analogue of CPI-3, with an amide group instead of the hydroxyethylene isostere was synthesized by SynPep (Camarillo, Calif.).
Since the conjugate inhibitors can cross the blood brain barrier in vivo, enter cells both in vitro and in vivo, and inhibit Aβ production in vitro, inhibition of Aβ production in vivo was determined. Tg2576 mice, expressing the Swedish mutation of the human amyloid precursor protein (including SEQ ID NO: 11) (Hsiao, K., et al., Science 274:99-102 (1996), the teachings of which are incorporated hereby in their entirety) were injected with CPI-3, which is identical in amino acid sequence to CPI-2 and lacks the amino-terminal fluorescein (FAM) derivative. Blood was collected from tg2576 animals at time intervals following injection of 400 μg of CPI-3.

memapsin 2 = target: T1, memapsin 2 (Homo sapiens, UniProt P56817); assay: Inhibition of memapsin 2 cleavage of fluorogenic substrate FS-2 (Ki, Ki apparent, Vi/Vo, % inhibition); type: biochemical; details: read-out: Ki for memapsin 2
T1 construct: made in house; host or cells: E. coli
Description: Ki is the inhibition equilibrium constant which indicates the ability of compounds to inhibit the β-secretase activity of memapsin 2 and memapsin 1. […] The K1 value is independent of the substrate, and converted from Ki apparent.
The Vi/Vo values depicted in Table 1 were determined at conditions under which the enzyme and inhibitor concentrations were equal (e.g., about 80 nM, 100 nM).
(§1) The relationship of Ki (independent of substrate concentration) to Kiapp is a function of substrate concentration in the assay and the Km for cleavage of the substrate by either memapsin 1 or memapsin 2 by the relationship: Kiapp=Ki(1+[S]/Km).
Ki is the inhibition equilibrium constant which indicates the ability of compounds to inhibit the β-secretase activity of memapsin 2 and memapsin 1. […] The Ki value is independent of the substrate, and converted from Ki apparent.
(§2) An aliquot of the inhibitor of known concentration in DMSO was diluted into 1.8 ml 0.1 M NaOAc, pH 4.0. DMSO and added to a final concentration of 10% (v/v), and memapsin 2 (final concentration of 80 nM), followed by a 20 minute equilibration at 37° C. Compounds were evaluated for the ability to inhibit memapsin 1 and memapsin 2 at concentrations between about 10 nM and about 10 μm of inhibitor.
(§3) The relationship of Ki (independent of substrate concentration) to Kiapp is a function of substrate concentration in the assay and the Km for cleavage of the substrate by either memapsin 1 or memapsin 2 by the relationship: Kiapp=Ki (1+[S]/Km).

plasma Aβ40 [3] = assay: Inhibition of Aβ production in APP/F transgenic mouse model of Alzheimer's disease (plasma Aβ40 sandwich ELISA); type: in vivo, mice; details: unconjugated inhibitor, MW 935 g/mole
memapsin 1 = target: T2, memapsin 1 (Homo sapiens, UniProt Q9Y5Z0); assay: Inhibition of memapsin 1 cleavage of fluorogenic substrate FS-2 (Ki apparent, % inhibition); type: biochemical; details: Table 9; read-out: Ki apparent (nM) Mep1
T2 construct: made in house; host or cells: E. coli
T2 sequence (Q9Y5Z0 63-466): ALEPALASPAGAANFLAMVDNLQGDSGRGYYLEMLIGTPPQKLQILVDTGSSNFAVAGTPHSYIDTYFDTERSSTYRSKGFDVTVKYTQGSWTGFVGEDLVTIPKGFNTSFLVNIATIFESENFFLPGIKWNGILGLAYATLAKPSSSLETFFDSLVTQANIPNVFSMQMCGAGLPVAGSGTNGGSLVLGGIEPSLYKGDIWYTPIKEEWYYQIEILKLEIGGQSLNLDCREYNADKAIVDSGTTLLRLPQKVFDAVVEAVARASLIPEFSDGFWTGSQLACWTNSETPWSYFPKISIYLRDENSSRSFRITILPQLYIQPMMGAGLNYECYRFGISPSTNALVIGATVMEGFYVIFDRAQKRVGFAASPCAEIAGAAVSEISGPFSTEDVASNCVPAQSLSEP
Description: Vi/Vo depicts the ratio of initial cleavage velocities of the substrate FS-2 (Ermolieff, et al., Biochemistry […]:12450-12456 (2000)) by memapsin 1 or memapsin 2 in the absence (Vo) or presence (Vi) of a compound of the invention. […] The Vi/Vo values depicted in Table 1 were determined at conditions under which the enzyme and inhibitor concentrations were equal (e.g., about 80 nM, 100 nM).
as §1, §2, §3

plasma Aβ40 [4] = assay: Inhibition of Aβ production in APP/F transgenic mouse model of Alzheimer's disease (plasma Aβ40 sandwich ELISA); type: in vivo, mice; details: control inhibitor, 163 nmoles i.p., 2 hours following injection
Description: Compounds MMI-138, MMI-165, and MMI-185 were synthesized as described above. Compounds were dissolved in 1 ml of dimethyl sulfoxide (DMSO) to a final concentration of about 1 mg/ml for MMI-165 and MMI-185, and about 10 mg/ml for MMI-138. […] Inhibitors were diluted into PBS or H2O immediately prior to injection, as described below. Inhibition constants were determined by methods described by Ermolieff, et al (Biochem. 39:12450-12456 (2000), the teachings of which are incorporated hereby in their entirety).
The tg2576 strain of mice was obtained from Taconic (Germantown, N.Y.). The APP/F strain of mice were obtained by mating the tg2576 mice with the FVB/N strain. To determine presence of the Swedish APP gene in APP/F mice, the DNA from mice was isolated according to the Qiagen Dneasy™ Tissue Kit. PCR (Qiagen kit and protocol) was used to amplify the fragment of DNA corresponding to the human Swedish APP gene. The following primers were used: […]
At the age of three months, animals of the Alzheimer's disease mouse model APP/F were injected intraperitoneally (i.p.) with about 163 nanomoles of either compounds MMI-138 (molecular weight 674 g/mole; 110 μg per animal, n=2), MMI-165 (molecular weight 626 g/mole; 102 μg per animal, n—2), or MMI-185 (molecular weight 686; 112 μg per animal, n—2).
Heparinized capillary tubes collected blood samples from anesthetized animals from either the retro-orbital sinus or from the saphenous vein at specified intervals following injection. The blood samples were transferred to sterile 1.5 mL microcentrifuge tubes, centrifuged at 5,100 RPM for 10 minutes to recover the plasma (supernatant), and stored at −70° C. until analysis for the Aβ40 by Enzyme Linked-Immuno-Sorbent Assay (ELISA).
A sandwich ELISA (BioSource International, Camarillo, Calif.) was used to determine the levels of Aβ40 in plasma samples. The ELISA utilizes a primary antibody specific for human Aβ for the immobilization of the amino-terminus and a detection antibody specific for the carboxy-terminal amino acids of Aβ40. A conjugated secondary antibody was used to detect the ternary complex, using a stabilized chromogen substrate, quantifiable following addition of 1 M HCl, with the optical densities measured at 450 nm. The procedures were followed according to the BioSource protocol. Optical densities were converted to pg/ml quantities of Aβ40 using a linear regression of the optical densities of standards obtained from the commercial kit, to their known concentrations.

[5] = Martin et al., Aids 13:1227-32 (1999); cited from earlier work
[6] = four injections at 2 hour intervals

T1 sequence (P56817 41-454): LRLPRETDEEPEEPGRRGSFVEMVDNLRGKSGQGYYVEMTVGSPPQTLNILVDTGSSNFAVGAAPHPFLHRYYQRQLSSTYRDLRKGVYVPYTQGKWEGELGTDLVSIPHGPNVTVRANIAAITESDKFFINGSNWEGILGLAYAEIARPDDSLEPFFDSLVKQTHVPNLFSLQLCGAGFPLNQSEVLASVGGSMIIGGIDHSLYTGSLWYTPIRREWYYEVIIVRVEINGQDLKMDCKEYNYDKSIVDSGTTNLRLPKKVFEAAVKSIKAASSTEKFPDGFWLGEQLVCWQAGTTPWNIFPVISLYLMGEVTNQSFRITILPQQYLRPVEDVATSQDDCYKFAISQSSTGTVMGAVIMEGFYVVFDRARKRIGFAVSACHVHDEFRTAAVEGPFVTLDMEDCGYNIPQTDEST

CC(C)C[C@H](NC(=O)[C@H](CC(N)=O)NC(=O)[C@@H](NC(=O)[C@H](CCC(=O)O)NC(=O)CCCCCNC(=O)c1ccc2c(c1)C(=O)OC21c2ccc(O)cc2Oc2cc(O)ccc21)C(C)C)[C@@H](O)C[C@@H](C)C(=O)N[C@@H](C)C(=O)N[C@@H](CCC(=O)O)C(=O)N[C@@H](Cc1ccccc1)C(=O)NCC(=O)N[C@@H](Cc1ccc(O)cc1)C(=O)NCC(=O)N[C@@H](CCCNC(=N)N)C(=O)N[C@@H](CCCCN)C(=O)N[C@@H](CCCCN)C(=O)N[C@@H](CCCNC(=N)N)C(=O)N[C@@H](CCCNC(=N)N)C(=O)N[C@@H](CCC(N)=O)C(=O)N[C@@H](CCCNC(=N)N)C(=O)N[C@@H](CCCNC(=N)N)C(=O)N[C@@H](CCCNC(=N)N)C(=O)O [CPI-1] ({5FAM-Ahx}-EVN[LeuΨ(S-CHOHCH2)Ala]AEFGYGRKKRRQRRR-OH)
Penetration of cultured cells (intracellular fluorescence) (HEK293 cells): readily penetrated cultured cells within minutes | Uptake into brain (fluorescence) ([1]; 8 hours after i.p. injection, flow cytometry or confocal microscopy of brain sections): penetration of the fluorescent conjugate into all brain cells | Blood cells with strong fluorescence signal ([1]; whole blood 20 minutes after i.p. injection of 0.3 nmol): approximately 100%

CC(C)C[C@H](NC(=O)[C@H](CCC(=O)O)NC(=O)CCCCCNC(=O)c1ccc2c(c1)C(=O)OC21c2ccc(O)cc2Oc2cc(O)ccc21)C(=O)N[C@@H](CC(=O)O)C(=O)N[C@@H](CC(C)C)[C@@H](O)C[C@@H](C)C(=O)N[C@H](C(=O)N[C@@H](CCC(=O)O)C(=O)N[C@@H](Cc1ccccc1)C(=O)NCC(=O)NCC(=O)N[C@H](CCCNC(=N)N)C(=O)N[C@H](CCCNC(=N)N)C(=O)N[C@H](CCCNC(=N)N)C(=O)N[C@H](CCCNC(=N)N)C(=O)N[C@H](CCCNC(=N)N)C(=O)N[C@H](CCCNC(=N)N)C(=O)N[C@H](CCCNC(=N)N)C(=O)N[C@H](CCCNC(=N)N)C(=O)N[C@H](CCCNC(=N)N)C(=O)O)C(C)C [CPI-2] ({5FAM-Ahx}-ELD[LeuΨ(S-CHOHCH2)Ala]VEFGG[dR][dR][dR][dR][dR][dR][dR][dR][dR]-OH)
Penetration of cultured cells (intracellular fluorescence) (HEK293 cells): readily penetrated cultured cells within minutes

CC(C)C[C@H](NC(=O)[C@@H](N)CCC(=O)O)C(=O)N[C@@H](CC(=O)O)C(=O)N[C@@H](CC(C)C)[C@@H](O)C[C@@H](C)C(=O)N[C@H](C(=O)N[C@@H](CCC(=O)O)C(=O)N[C@@H](Cc1ccccc1)C(=O)NCC(=O)NCC(=O)N[C@H](CCCNC(=N)N)C(=O)N[C@H](CCCNC(=N)N)C(=O)N[C@H](CCCNC(=N)N)C(=O)N[C@H](CCCNC(=N)N)C(=O)N[C@H](CCCNC(=N)N)C(=O)N[C@H](CCCNC(=N)N)C(=O)N[C@H](CCCNC(=N)N)C(=O)N[C@H](CCCNC(=N)N)C(=O)N[C@H](CCCNC(=N)N)C(=O)O)C(C)C [CPI-3] (H-ELD[LeuΨ(S-CHOHCH2)Ala]VEFGG[dR][dR][dR][dR][dR][dR][dR][dR][dR]-OH; N-terminus and C-terminus assumed)
Plasma Aβ40 level relative to initial value (plasma Aβ40 [2]; 2 hours following i.p. injection): about one third | Aβ level, average low as % of the average initial value (plasma Aβ40 [2]; [6]): 29% | Inhibition of plasma Aβ (plasma Aβ40 [2]; [6]): about 80% | Plasma Aβ40 relative to PBS control two hours following injection (plasma Aβ40 [2]; i.p., various doses): significant dose-dependent reduction | Time of return of plasma Aβ40 to the initial value (plasma Aβ40 [2]; single i.p. injection): ≤ 8 h | pKi (memapsin 2): 7.46

CC(C)C[C@H](NC(=O)[C@@H](N)CCC(=O)O)C(=O)N[C@@H](CC(=O)O)C(=O)N[C@@H](CC(C)C)[C@@H](O)C[C@@H](C)C(=O)N[C@H](C(=O)N[C@@H](CCC(=O)O)C(=O)N[C@@H](Cc1ccccc1)C(=O)O)C(C)C [OM00-3, ELDL*AVEF] (H-ELD[LeuΨ(S-CHOHCH2)Ala]VEF-OH; N-terminus assumed)
Inhibition of Aβ40 production in vivo (plasma Aβ40 [3]): failed to inhibit Aβ40 production | Ki (memapsin 1): 0.18 nM | Effect on plasma Aβ40 levels (plasma Aβ40 [2]; i.p. injection (FIG. 21C)): did not reduce plasma Aβ40 levels | Decrease of plasma Aβ40 (plasma Aβ40 [4]): 16%

CC(C)(C)NC(=O)[C@@H]1CN(Cc2cccnc2)CCN1C[C@@H](O)C[C@@H](Cc1ccccc1)C(=O)N[C@H]1c2ccccc2C[C@H]1O [indinavir]
Crossing of the blood-brain barrier [5]: can cross the blood-brain barrier
